For data set [1], the system named is L. infantum intramacrophagic amastigotes. In words: L. donovani infantum/RAW 264.7 macrophage model (intramacrophagic amastigotes, SYBR Green I). It counts as cell-based, Leishmania donovani infantum. The note with it: Leishmania infantum, Macrophage. The protocol:
Protocol for Evaluation on the L. donovani infantum/RAW 264.7 Macrophage Model (Intramacrophagic Amastigotes)
Mouse macrophage cells RAW 264.7 (ATCC) were seeded into a 96-well microplate and maintained in DMEM medium (Applied Biosystems, France) supplemented with 10% heat-inactivated fetal bovine serum in a 5% CO2 incubator at 37° C. for 24 h. Then, the medium was replaced with 100 μL fresh medium containing a suspension of 10^5 L. infantum amastigotes and the incubation time was 16 h. Then, extracellular parasites were eliminated from the medium and 100 μL fresh medium containing compound in various concentrations were added for a 48 h-incubation. Parasite growth was determined by using SYBR® Green I (Life technology, Fisher Scientific, France), a dye with marked fluorescence enhancement upon contact with DNA. The cell lysis suspension was diluted 1:1 in lysis buffer (10 mM NaCl, 1 mM Tris HCl pH8, 2.5 mM EDTA pH 8, 0.05% SDS, 0.01 mg/mL proteinase K and 10×SYBR Green I). Incorporation of SYBR Green I in DNA amplification was measured using the Master epRealplex cycler® (Eppendorf, France) according to the following program to increase the SYBR green incorporation: 90° C. for 1 min, decrease in temperature from 90° C. to 10° C. for 5 min with reading the fluorescence at 10° C. for 1 min and a new reading at 10° C. for 2 min. The EC50 as the concentration inhibiting the parasite growth by 50% was calculated by nonlinear regression using icestimator website 1.2 version: http://www.antimalarial-icestimator.net/MethodIntro.htm.

The nature of data set [2]: In vivo toxicity evaluation by oral route in mice (serum biochemical parameters). Also noted: species or system Balb/C female mice. Here is the method: Biochemical parameters relative to VP343 and VP370 toxicity in Balb/C female mice (18-20 g) after a single treatment by oral route at 100 mg/kg under a 0.1 mL volume (=5 mL/kg). Serum were collected one week after the treatment. Excipient: Methylcellulose 1%+Tween 0.1%.
Dosages were performed with a Cobas 800 (Roche/Hitachi) apparatus.

Setting [3] is: single oral treatment 100 mg/kg, serum one week after treatment.

This is an account of results in US20200281873A1, “Adamantane or Bicyclic Monoterpenoid Derivatives for Use in the Treatment of Leishmaniasis” (Commissariat a l'Energie Atomique et aux Energies …, priority 2017, published 2020).

SMILES strings stand for the structures. Where two headings read alike, the source gives them in different places.

For the molecule `COc1ccc(Br)cc1CN(C)C12CC3CC(CC(C3)C1)C2` [VP343], the IC50 in data set [1] (Table II, 3 different experiments, SYBR Green I method, read-out: IC50 intramacrophagic) was 0.04 µM. Besides, in data set [1] (cf. Table II, read-out: IC50 (intramacrophage amastigotes)), the IC50 turned out to be 0.04 µM. For the same molecule, in data set [2] (setting [3]), the “Serum AST ± SD” value came out at 391 ± 72 U/L, the “Serum AST ± SD (second AST column)” value came out at 169 ± 34 U/L and the Serum creatinin is below 18 µM. Moreover, the “Toxicity after single oral treatment (in words)” value in data set [2] (single treatment by oral route at 100 mg/kg) was “did not show toxicity”.
